Results as given in US20240408169A1 (priority 2023, published 2024).
Where two headings read alike, the source gives them in different places. *1 amine or outer side, *2 acyl side, *3 side chain or, on linkers, in order; H or OH if unused. Where a SMILES comes first, the peptide text is derived from it. Bridges are numbered along the chain shown (N, C = ends). [ ]: non-standard residue; d: D form. The star is where a group is joined. NMePhe(2-(4-MorPh),5-Cl) = CN[C@@H](Cc1cc(Cl)ccc1-c1ccc(N2CCOCC2)cc1)C(=O)O; X11 = CN1CCN(c2ccc(-c3ccc(Cl)cc3C[C@@H](C(=O)[*:2])N(C)[*:1])cc2)CC1; X32 = CN([C@@H](Cc1cc(Cl)ccc1-c1ccc(N2CCOCC2=O)cc1)C(=O)[*:2])[*:1]; X6 = CN([C@@H](Cc1cc(Cl)ccc1-c1ccc(-c2cccnc2)cc1)C(=O)[*:2])[*:1]; X30 = CN([C@@H](Cc1cc(Cl)ccc1-c1ccc2c(c1)ncn2C)C(=O)[*:2])[*:1]; NMehhhLys(Me) = CN([C@@H](CCCCCCCN(C)[*:3])C(=O)[*:2])[*:1]; X22 = CN([C@@H](Cc1cc(Cl)ccc1-c1cnn(C)c1)C(=O)[*:2])[*:1]; NMe(hhhLys) = CN([C@@H](CCCCCCCN[*:3])C(=O)[*:2])[*:1]; X28 = CN([C@@H](Cc1cc(Cl)cnc1OC1CCC1)C(=O)[*:2])[*:1]; Cyclobutanecarbonyl(1-CF3) = O=C(C1(C(F)(F)F)CCC1)*; X88 = CC(C)c1ccc(Cl)cc1C[C@@H](C(=O)[*:2])N(C)[*:1]; cBuCO(3,3-F2-1-CF3) = O=C(C1(C(F)(F)F)CC(F)(F)C1)*; Pro(trans-4-F) = O=C(O)[C@@H]1C[C@@H](F)CN1; Gly(cPr) = N[C@H](C(=O)O)C1CC1; X65 = CC1(C(=O)*)CC(F)(F)C1

Assays:
OVCAR3 cells = test: MTT proliferation assay, OVCAR3; assay type: cell-based; conditions: 5 days compound exposure, 1:3 serial dilution starting at 10 μM;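 also: compound given as an 8- or 10-point series, one day after plating, with exposure covering roughly 3-4 cell doublings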
WI-38 cells = test: MTT proliferation assay, WI-38; assay type: cell-based; conditions: 3 days compound exposure, 1:3 serial dilution starting at 10 μM;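 also: Eight- or ten-point dilution series, with exposure length chosen to span about three to four cell doublings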
NCI-H1048 cells = test: MTT proliferation assay, NCI-H1048; assay type: cell-based; conditions: 5 days compound exposure, 1:3 serial dilution starting at 10 μM;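 also: Dose-response in 96-well plates over 8 or 10 concentration points, with exposure spanning 3-4 cell doublings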
CyclinB1/CDK1 = biological target: T1, CyclinB1/CDK1 (Homo sapiens, UniProt P14635); test: Fluorescence Polarization (FP) competitive binding assay, Cyclin B1/Cdk1;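 also: fluorescence polarization read after equilibration at room temperature, with IC50 taken from serially diluted dose-response curves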
T1 construct: purchased Eurofins, discovery 14-450

CyclinE1/CDK2 = biological target: T2, CyclinE1/CDK2 (Homo sapiens, UniProt P24864); test: Fluorescence Polarization (FP) competitive binding assay, Cyclin E1/Cdk2;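 also: readings taken after two-hour equilibration at room temperature in HEPES buffer with NaCl, DTT, NP-40 and BSA, IC50 fitted from eight-concentration serial dilution series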
T2 construct: purchased Eurofins, discovery 14-475

CyclinA2/CDK2 = biological target: T3, CyclinA2/CDK2 (Homo sapiens, UniProt P20248); test: Fluorescence Polarization (FP) competitive binding assay, Cyclin A2/Cdk2;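 also: plates equilibrated two hours at room temperature before polarization reading, IC50 fitted from eight-concentration compound titration curves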
T3 construct: purchased CRELUX Protein Services

[1] = 10 nM Cyclin B1/Cdk1, 2 nM FAM probe; average of 2-3 independent experiments; read-out: Cyclin B FP IC50
[2] = 10 nM Cyclin E1/Cdk2, 2 nM FAM probe, average of 2-3 independent experiments, read-out: Cyclin E FP IC50
[3] = 8 nM Cyclin A2/Cdk2, 2 nM FAM probe, average of 2-3 independent experiments, read-out: Cyclin A FP IC50

SMILES | GI50 (OVCAR3 cells) | GI50 (WI-38 cells) | GI50 (NCI-H1048 cells) | IC50 (CyclinB1/CDK1; [1]) | IC50 (CyclinE1/CDK2; [2]) | IC50 (CyclinA2/CDK2; [3]) | IC50 (CyclinB1/CDK1; read-out: Cyclin B FP IC50; 10 nM Cyclin B1/Cdk1, 2 nM FAM probe; average of 2-3 independent experiments) | IC50 (CyclinE1/CDK2) | IC50 (CyclinA2/CDK2)
CC(C)C[C@@H]1NC(=O)[C@@H](N(C)C(=O)[C@@H](NC(=O)[C@@H]2C[C@@H](F)CN2C(=O)C2(C(F)(F)F)CC(F)(F)C2)C2CC2)CCCCCCCN(C)C(=O)[C@H](Cc2cc(Cl)ccc2-c2ccc(-c3cccnc3)cc2)N(C)C1=O [Example 375] ({cBuCO(3,3-F2-1-CF3)}-[Pro(trans-4-F)][Gly(cPr)][NMehhhLys(Me)]L[X6]; lactam 3-C) | 20 nM | 16800 nM | 10 nM | 20 nM | 1730 nM | 20 nM |  |  | 
CC(C)C[C@@H]1NC(=O)[C@@H](N(C)C(=O)[C@@H](NC(=O)[C@@H]2C[C@@H](F)CN2C(=O)C2(C)CC(F)(F)C2)C2CC2)CCCCCCCN(C)C(=O)[C@H](Cc2cc(Cl)ccc2-c2ccc(N3CCOCC3)cc2)N(C)C1=O [Example 365] (X65-[Pro(trans-4-F)][Gly(cPr)][NMehhhLys(Me)]L[NMePhe(2-(4-MorPh),5-Cl)]; lactam 3-C) | 10 nM | 3180 nM | 10 nM | 20 nM | 1170 nM | 20 nM |  |  | 
CC(=O)N1CC=C(c2ccc(Cl)cc2C[C@H]2C(=O)N(C)CCCCC=CC[C@H](N(C)C(=O)[C@@H](NC(=O)[C@@H]3C[C@@H](F)CN3C(=O)C3(C(F)(F)F)CCC3)C3CC3)C(=O)N[C@@H](CC(C)C)C(=O)N2C)CC1 [Example 36] | 350 nM | 16000 nM | 110 nM | 20 nM | 820 nM | 30 nM |  |  | 
CC(C)C[C@@H]1NC(=O)[C@@H](N(C)C(=O)[C@@H](NC(=O)[C@@H]2C[C@@H](F)CN2C(=O)C2(C(F)(F)F)CC(F)(F)C2)C2CC2)CCCCCCCN(C)C(=O)[C@H](Cc2cc(Cl)ccc2-c2ccc(N3CCOCC3=O)cc2)N(C)C1=O [Example 408] ({cBuCO(3,3-F2-1-CF3)}-[Pro(trans-4-F)][Gly(cPr)][NMehhhLys(Me)]L[X32]; lactam 3-C) | 10 nM | 5530 nM | 10 nM | 20 nM | 510 nM | 20 nM |  |  | 
CC(C)C[C@@H]1NC(=O)[C@@H](N(C)C(=O)[C@@H](NC(=O)[C@@H]2C[C@@H](F)CN2C(=O)C2(C(F)(F)F)CC(F)(F)C2)C2CC2)CCCCCCCNC(=O)[C@H](Cc2cc(Cl)ccc2C(C)C)N(C)C1=O [Example 63] ({cBuCO(3,3-F2-1-CF3)}-[Pro(trans-4-F)][Gly(cPr)][NMe(hhhLys)]L[X88]; lactam 3-C) | 240 nM | 3170 nM | 110 nM | 20 nM | 3510 nM | 120 nM |  |  | 
CC(C)C[C@@H]1NC(=O)[C@@H](N(C)C(=O)[C@@H](NC(=O)[C@@H]2C[C@@H](F)CN2C(=O)C2(C(F)(F)F)CCC2)C2CC2)CCCCCCCN(C)C(=O)[C@H](Cc2cc(Cl)ccc2-c2cnn(C)c2)N(C)C1=O [Example 185] ({Cyclobutanecarbonyl(1-CF3)}-[Pro(trans-4-F)][Gly(cPr)][NMehhhLys(Me)]L[X22]; lactam 3-C) | 10 nM | 10400 nM | 10 nM | 20 nM | 110 nM | 20 nM |  |  | 
CC(C)C[C@@H]1NC(=O)[C@@H](N(C)C(=O)[C@@H](NC(=O)[C@@H]2C[C@@H](F)CN2C(=O)C2(C(F)(F)F)CC(F)(F)C2)C2CC2)CCCCCCCN(C)C(=O)[C@H](Cc2cc(Cl)ccc2-c2ccc3c(c2)ncn3C)N(C)C1=O [Example 251] ({cBuCO(3,3-F2-1-CF3)}-[Pro(trans-4-F)][Gly(cPr)][NMehhhLys(Me)]L[X30]; lactam 3-C) | 10 nM | 13900 nM | 10 nM |  |  |  | 20 nM | 930 nM | 40 nM
CC(C)C[C@@H]1NC(=O)[C@@H](N(C)C(=O)[C@@H](NC(=O)[C@@H]2C[C@@H](F)CN2C(=O)C2(C(F)(F)F)CCC2)C2CC2)CCCCCCCNC(=O)[C@H](Cc2cc(Cl)cnc2OC2CCC2)N(C)C1=O [Example 141] ({Cyclobutanecarbonyl(1-CF3)}-[Pro(trans-4-F)][Gly(cPr)][NMe(hhhLys)]L[X28]; lactam 3-C) | 190 nM | 3390 nM | 90 nM | 20 nM | 100 nM | 40 nM |  |  | 
CC(C)C[C@@H]1NC(=O)[C@@H](N(C)C(=O)[C@@H](NC(=O)[C@@H]2C[C@@H](F)CN2C(=O)C2(C(F)(F)F)CC(F)(F)C2)C2CC2)CCCCCCCN(C)C(=O)[C@H](Cc2cc(Cl)ccc2-c2ccc(N3CCN(C)CC3)cc2)N(C)C1=O [Example 336] ({cBuCO(3,3-F2-1-CF3)}-[Pro(trans-4-F)][Gly(cPr)][NMehhhLys(Me)]L[X11]; lactam 3-C) | 10 nM | 2480 nM | 10 nM | 20 nM | 420 nM | 20 nM |  |  | 
